Test results taken from the supplement of paper PMC10307832.

Legend:
Experiment in all cases: relative viability (nuclei count vs DMSO), 5 days (fraction); higher = more cells survive
201T = system: 201T
In short: (§1)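 Relative viability is defined as nuclei in treated wells over nuclei in vehicle wells. Duplicate plates were run and medians reported. Lung cancer cell lines in 1536-well plates were dosed by pin tool one day after seeding, with one drug or with a fixed anchor-drug dose plus five library-drug doses (not always all listed) in √10 steps, and nuclei were counted after 5 days.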

LU99A = system: LU99A
In short: as §1

NCI-H838 = system: NCI-H838
In short: as §1

NCI-H1651 = system: NCI-H1651
In short: as §1

A-427 = system: A-427
In short: as §1

LK-2 = system: LK-2
In short: as §1

NCI-H1793 = system: NCI-H1793
In short: as §1

NCI-H727 = system: NCI-H727
In short: as §1

LCLC-97TM1 = system: LCLC-97TM1
In short: as §1

NCI-H23 = system: NCI-H23
In short: as §1

H3255 = system: H3255
In short: as §1

NCI-H460 = system: NCI-H460
In short: as §1

PC-3 [JPC-3] = system: PC-3 [JPC-3]
In short: as §1

LCLC-103H = system: LCLC-103H
In short: as §1

COR-L23 = system: COR-L23
In short: as §1

SW 900 = system: SW 900
In short: as §1

RERF-LC-KJ = system: RERF-LC-KJ
In short: as §1

NCI-H1944 = system: NCI-H1944
In short: as §1

PC-14 = system: PC-14
In short: as §1

NCI-H1650 = system: NCI-H1650
In short: as §1

NCI-H650 = system: NCI-H650
In short: as §1

SW 1573 = system: SW 1573
In short: as §1

NCI-H2347 = system: NCI-H2347
In short: as §1

Compound: COc1cc(N2CCC(C(N)=O)CC2)ccc1Nc1nc(N)c(Cl)c(Nc2ccccc2S(=O)(=O)C(C)C)n1 [HG-5-88-01] + O=C(c1cc(Cc2n[nH]c(=O)c3ccccc23)ccc1F)N1CCN(C(=O)C2CC2)CC1 [Olaparib] (partner 8 µM)
- relative viability (201T; first compound 0.04 µM): 0.841
- relative viability (201T; first compound 0.1265 µM): 0.844
- relative viability (201T; first compound 1.265 µM): 0.795
- relative viability (201T; first compound 4 µM): 0.831
- relative viability (LU99A; first compound 0.04 µM): 0.266
- relative viability (LU99A; first compound 0.1265 µM): 0.257
- relative viability (LU99A; first compound 0.4 µM): 0.208
- relative viability (LU99A; first compound 1.265 µM): 0.269
- relative viability (LU99A; first compound 4 µM): 0.315
- relative viability (NCI-H838; first compound 0.04 µM): 0.793
- relative viability (NCI-H838; first compound 0.1265 µM): 0.766
- relative viability (NCI-H838; first compound 0.4 µM): 0.67
- relative viability (NCI-H838; first compound 1.265 µM): 0.557
- relative viability (NCI-H838; first compound 4 µM): 0.452
- relative viability (NCI-H1651; first compound 0.04 µM): 0.189
- relative viability (NCI-H1651; first compound 0.1265 µM): 0.199
- relative viability (NCI-H1651; first compound 0.4 µM): 0.176
- relative viability (NCI-H1651; first compound 1.265 µM): 0.234
- relative viability (NCI-H1651; first compound 4 µM): 0.164
- relative viability (A-427; first compound 0.04 µM): 0.652
- relative viability (A-427; first compound 0.1265 µM): 0.807
- relative viability (A-427; first compound 0.4 µM): 0.762
- relative viability (A-427; first compound 1.265 µM): 0.746
- relative viability (A-427; first compound 4 µM): 0.513
- relative viability (LK-2; first compound 0.04 µM): 0.941
- relative viability (LK-2; first compound 0.1265 µM): 0.645
- relative viability (LK-2; first compound 0.4 µM): 0.718
- relative viability (LK-2; first compound 4 µM): 0.501
- relative viability (NCI-H1793; first compound 0.04 µM): 0.878
- relative viability (NCI-H1793; first compound 0.1265 µM): 0.84
- relative viability (NCI-H1793; first compound 0.4 µM): 0.848
- relative viability (NCI-H1793; first compound 1.265 µM): 0.651
- relative viability (NCI-H1793; first compound 4 µM): 0.847
- relative viability (NCI-H727; first compound 0.04 µM): 0.715
- relative viability (NCI-H727; first compound 0.1265 µM): 0.705
- relative viability (NCI-H727; first compound 0.4 µM): 0.827
- relative viability (NCI-H727; first compound 4 µM): 0.572
- relative viability (LCLC-97TM1; first compound 0.04 µM): 0.434
- relative viability (LCLC-97TM1; first compound 0.1265 µM): 0.396
- relative viability (LCLC-97TM1; first compound 0.4 µM): 0.398
- relative viability (LCLC-97TM1; first compound 1.265 µM): 0.26
- relative viability (LCLC-97TM1; first compound 4 µM): 0.193
- relative viability (NCI-H23; first compound 0.04 µM): 0.321
- relative viability (NCI-H23; first compound 0.1265 µM): 0.279
- relative viability (NCI-H23; first compound 0.4 µM): 0.303
- relative viability (NCI-H23; first compound 1.265 µM): 0.334
- relative viability (NCI-H23; first compound 4 µM): 0.194
- relative viability (H3255; first compound 0.04 µM): 0.556
- relative viability (H3255; first compound 0.1265 µM): 0.593
- relative viability (H3255; first compound 0.4 µM): 0.555
- relative viability (H3255; first compound 4 µM): 0.531
- relative viability (NCI-H460; first compound 0.04 µM): 0.415
- relative viability (NCI-H460; first compound 0.1265 µM): 0.498
- relative viability (NCI-H460; first compound 0.4 µM): 0.388
- relative viability (NCI-H460; first compound 1.265 µM): 0.356
- relative viability (NCI-H460; first compound 4 µM): 0.503
- relative viability (PC-3 [JPC-3]; first compound 0.04 µM): 1.15
- relative viability (PC-3 [JPC-3]; first compound 0.1265 µM): 1.14
- relative viability (PC-3 [JPC-3]; first compound 0.4 µM): 1.04
- relative viability (PC-3 [JPC-3]; first compound 1.265 µM): 0.379
- relative viability (PC-3 [JPC-3]; first compound 4 µM): 0.506
- relative viability (LCLC-103H; first compound 0.04 µM): 0.714
- relative viability (LCLC-103H; first compound 0.1265 µM): 0.748
- relative viability (LCLC-103H; first compound 0.4 µM): 0.697
- relative viability (LCLC-103H; first compound 1.265 µM): 0.654
- relative viability (LCLC-103H; first compound 4 µM): 0.719
- relative viability (COR-L23; first compound 0.04 µM): 0.336
- relative viability (COR-L23; first compound 0.1265 µM): 0.386
- relative viability (COR-L23; first compound 0.4 µM): 0.28
- relative viability (COR-L23; first compound 1.265 µM): 0.319
- relative viability (COR-L23; first compound 4 µM): 0.246
- relative viability (SW 900; first compound 0.04 µM): 0.954
- relative viability (SW 900; first compound 0.1265 µM): 1.06
- relative viability (SW 900; first compound 0.4 µM): 0.867
- relative viability (SW 900; first compound 1.265 µM): 0.848
- relative viability (SW 900; first compound 4 µM): 0.631
- relative viability (RERF-LC-KJ; first compound 0.04 µM): 0.937
- relative viability (RERF-LC-KJ; first compound 0.1265 µM): 0.957
- relative viability (RERF-LC-KJ; first compound 0.4 µM): 0.878
- relative viability (RERF-LC-KJ; first compound 1.265 µM): 0.884
- relative viability (RERF-LC-KJ; first compound 4 µM): 0.519
- relative viability (NCI-H1944; first compound 0.04 µM): 0.414
- relative viability (NCI-H1944; first compound 0.1265 µM): 0.374
- relative viability (NCI-H1944; first compound 0.4 µM): 0.479
- relative viability (NCI-H1944; first compound 1.265 µM): 0.466
- relative viability (NCI-H1944; first compound 4 µM): 0.466
- relative viability (PC-14; first compound 0.04 µM): 0.257
- relative viability (PC-14; first compound 0.1265 µM): 0.339
- relative viability (PC-14; first compound 0.4 µM): 0.321
- relative viability (PC-14; first compound 1.265 µM): 0.307
- relative viability (PC-14; first compound 4 µM): 0.0752
- relative viability (NCI-H1650; first compound 0.04 µM): 0.729
- relative viability (NCI-H1650; first compound 0.1265 µM): 0.753
- relative viability (NCI-H1650; first compound 0.4 µM): 0.969
- relative viability (NCI-H1650; first compound 1.265 µM): 0.65
- relative viability (NCI-H1650; first compound 4 µM): 0.837
- relative viability (NCI-H650; first compound 0.04 µM): 0.423
- relative viability (NCI-H650; first compound 0.1265 µM): 0.366
- relative viability (NCI-H650; first compound 0.4 µM): 0.408
- relative viability (NCI-H650; first compound 1.265 µM): 0.321
- relative viability (NCI-H650; first compound 4 µM): 0.239
- relative viability (SW 1573; first compound 0.04 µM): 0.562
- relative viability (SW 1573; first compound 0.1265 µM): 0.554
- relative viability (SW 1573; first compound 0.4 µM): 0.438
- relative viability (SW 1573; first compound 1.265 µM): 0.368
- relative viability (SW 1573; first compound 4 µM): 0.375
- relative viability (NCI-H2347; first compound 0.04 µM): 0.664
- relative viability (NCI-H2347; first compound 0.1265 µM): 0.569
- relative viability (NCI-H2347; first compound 0.4 µM): 0.61
- relative viability (NCI-H2347; first compound 1.265 µM): 0.539
- relative viability (NCI-H2347; first compound 4 µM): 0.549
